{"source": "patent EP4595972A1", "about": "“PEPTIDE FOR TREATING OR PREVENTING 4R TAUOPATHY” (GemVax & KAEL Co., Ltd., priority 2022, dated 2024)", "key": {"[1]": {"system": "human Tau-BiFC (hTau-VN173, hTau-VC155)", "assay": "Tau immunoblot of brain lysate, soluble fraction, hTau", "format": "in vivo, mouse", "conditions": "LMTM 15 mg/kg oral vs. vehicle; decrease (in parentheses)", "procedure": "• (1) After completing administration, the mice of TauP301L-BiFC mouse model were anesthetized, followed by preparing heart laparotomy. • (2) Saline was introduced to the heart of each mouse in the TauP301L-BiFC mouse model, followed by removing vivo blood using a perfusion pump machine. • (3) After removing the blood, the brain was extracted and weighed. • (4) 1 mL RIPA buffer (w/protease/phosphatase inhibitor cocktail) was added to the extracted brain, followed by homogenization. • (5) After moving the homogenized brain lysate to an ep-tube, it was subjected to incubation in 4°C orbital shaker for 2 hours. • (6) After centrifugation at 4°C with a speed of 13,000 rpm for 20 minutes, the supernatant (soluble fraction) was collected in a new ep-tube and stored at -80°C • (7) In order to prepare an immunoblot sample, the concentration of a soluble fraction sample was quantified by Bradford protein quantification method. • (8) To each sample, RIPA buffer and 4X SDS Laemmli sample buffer (w/ 2.5% β-mercaptoethanol for reducing condition) were added to reach a final concentration of 2 mg/mL. • (9) The sample was boiled at 97°C for 5 minutes. […]"}, "total tau (Tau5)": {"system": "total tau (Tau5)", "assay": "Tau immunoblot of brain lysate, insoluble fraction, total tau", "format": "in vivo, mouse", "conditions": "LMTM 15 mg/kg oral vs. vehicle; decrease (in parentheses)", "procedure": "• (1) Pellets remaining after moving the supernatant (soluble fraction) were dispersed in 1 mL of 1M sucrose, DNase I (conc. 1 mg/mL) in RIPA buffer. • (2) After centrifugation at 4°C with a speed of 13,000 rpm for 20 minutes, the supernatant was removed. • (3) After resuspension of pellets in 2% SDS solution (1 mL per gram of tissue), the mixture was subjected to incubation at room temperature for 1 hour. • (4) After centrifugation at room temperature with a speed of 13,000 rpm for 1 minute, the supernatant (insoluble fraction) was collected and moved to a new ep-tube, and the same amount of 2X SDS Laemmli sample buffer (w/ 2.5% β-mercaptoethanol for reducing condition) was added thereto. • (5) The sample was boiled at 97°C for 5 minutes. […]"}, "tau aggregation": {"molecular_target": "tau aggregation (Homo sapiens, UniProt P10636)", "sequence (P10636 whole entry)": "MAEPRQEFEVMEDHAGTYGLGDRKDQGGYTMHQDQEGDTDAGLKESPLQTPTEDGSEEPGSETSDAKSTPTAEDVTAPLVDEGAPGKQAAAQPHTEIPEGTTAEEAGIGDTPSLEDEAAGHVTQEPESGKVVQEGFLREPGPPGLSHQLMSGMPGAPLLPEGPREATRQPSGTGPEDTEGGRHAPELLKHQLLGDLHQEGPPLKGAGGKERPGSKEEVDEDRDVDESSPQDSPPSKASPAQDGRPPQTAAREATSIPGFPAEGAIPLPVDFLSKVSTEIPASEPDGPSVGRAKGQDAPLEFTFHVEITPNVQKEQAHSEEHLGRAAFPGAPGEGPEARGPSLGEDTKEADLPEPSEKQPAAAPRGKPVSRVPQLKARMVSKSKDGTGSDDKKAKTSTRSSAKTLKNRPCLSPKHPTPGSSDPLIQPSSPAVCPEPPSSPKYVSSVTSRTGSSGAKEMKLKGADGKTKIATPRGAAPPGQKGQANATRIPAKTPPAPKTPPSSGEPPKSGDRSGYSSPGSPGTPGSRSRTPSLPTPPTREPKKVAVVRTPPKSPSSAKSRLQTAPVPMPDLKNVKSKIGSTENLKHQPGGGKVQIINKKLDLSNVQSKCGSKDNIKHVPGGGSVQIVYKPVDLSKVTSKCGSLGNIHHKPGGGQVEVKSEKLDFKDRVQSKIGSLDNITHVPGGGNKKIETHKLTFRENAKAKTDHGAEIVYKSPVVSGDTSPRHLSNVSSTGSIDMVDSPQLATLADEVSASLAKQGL", "conditions": "reported in Kim et al., Exp. Mol. Med. 55, 612-627 (2023); read-out: EC50 (tau aggregation inhibitory section); cited from earlier work"}, "TauP301L-BiFC mice": {"system": "TauP301L-BiFC mice", "assay": "Rota-rod test (motor ability) in 4R TauP301L-BiFC mouse model", "format": "in vivo", "procedure": "• (1) After carrying out adaptation training for 3 days, a behavior experiment was performed on day 4. • (2) 1 hour before the experiment, a time for adaptation of experimental mice in a space where the behavior experiment is conducted, should be ensured. • (3) During the period for adaptation training, each mouse is forced to walk on a treadmill for 360 seconds at a speed of 5 rpm, 15 rpm, 20/25 rpm. Here, an experimental mouse losing a balance and fallen to the floor was forced to walk again. • (4) After the adaptation training, the behavior experiment was conducted by gradually increasing the speed from 5 rpm to 35 rpm for 480 seconds. When the treadmill worked, a time (seconds) taken until the experimental mouse lost the balance and fallen to the floor was measured.\nResults of evaluating motor ability improvement efficacy through a Rota-rod test in a 4R TauP301L-BiFC mouse model were shown in Table 4 below and FIG. 2. Using a TauP301L-BiFC mouse model including 7- to 12-month-old mice administered with the drug for 5 months, the experiment was conducted. The results were analyzed through bidirectional ANOVA using Tukey's multiple-comparisons (*p<0.05; **p<0.01; n.s.: Insignificant for vehicle)."}}, "data": [{"smiles": "CN(C)c1ccc2c(c1)Sc1cc(N(C)C)ccc1N2.CS(=O)(=O)O.CS(=O)(=O)O", "note": "[LMTM]", "values": [{"measurement": "Soluble fraction, Phosphorylated tau, hTau (pS199)", "setting": "[1]", "value": "(20%)"}, {"measurement": "Soluble fraction, Phosphorylated tau, hTau (pS396)", "setting": "[1]", "value": "(23%)"}, {"measurement": "Soluble fraction, Total tau, hTau", "setting": "[1]", "value": "(20%)"}, {"measurement": "Insoluble fraction, Total tau", "setting": "total tau (Tau5)", "value": "(42%)"}, {"measurement": "EC50", "setting": "tau aggregation", "value": "2200 ± 200", "unit": "nM"}, {"measurement": "Duration (Rota-rod test on 11.9 months)", "setting": "TauP301L-BiFC mice; LMTM 15 mg/kg oral vs. vehicle, improvement", "value": 57, "unit": "%"}, {"measurement": "exercise performance (Rota-rod treadmill), in words", "setting": "TauP301L-BiFC mice; LMTM 15 mg/kg vs. vehicle, mice administered 59 times", "value": "exercise performance tended to improve, however, did not show a significant difference"}]}]}
